Reference: US11530193B2, “Kinase inhibitors” (The University of Manchester, priority 2018, dated 2022)
Like-named read-outs stand apart in the source and are kept apart here.

What was measured:
[1] = target: SYK (Homo sapiens (Human), UniProt P43405); assay: Tm-Shift assay (thermal melting, SYPRO Orange); format: binding;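 note: recombinant His-tagged protein made in Sf9 insect cells by baculovirus, in HEPES NaCl buffer, heated stepwise with fluorescence recorded at every temperature step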
[2] = target: CAMK1D (Homo sapiens (Human), UniProt Q8IU85); assay: Tm-Shift assay (thermal melting, SYPRO Orange); format: binding; conditions: read-out: CAMK1d Tm-Shift
[3] = compound 10 μM, protein 2 μM, ΔTm obs vs protein without ligand, triplicate

CAMK1D, sequence (Q8IU85 1-333): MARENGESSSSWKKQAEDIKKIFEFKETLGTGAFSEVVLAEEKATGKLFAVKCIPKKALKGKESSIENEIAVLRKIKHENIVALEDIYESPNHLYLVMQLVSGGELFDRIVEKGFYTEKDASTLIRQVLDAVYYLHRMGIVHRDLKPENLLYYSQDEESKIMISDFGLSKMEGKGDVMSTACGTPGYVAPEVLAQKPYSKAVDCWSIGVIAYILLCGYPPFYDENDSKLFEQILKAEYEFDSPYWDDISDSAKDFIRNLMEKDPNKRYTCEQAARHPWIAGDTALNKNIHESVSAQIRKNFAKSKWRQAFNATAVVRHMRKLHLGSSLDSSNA

Row | Compound | SYK Tm-Shift [1, 3] [°C] | other results
1 | CC(C)(C#N)c1cc(Nc2nc(N3CCC[C@H](N)C3)ncc2C(N)=O)cc(C(=O)N2CCCC2)c1 [Example 47, (S)-2-(3-aminopiperidin-1-yl)-4-((3-(2-cyanopropan-2-yl)-5-(pyrrolidine-1-carbonyl)phenyl)amino)pyrimidine-5-carboxamide] | 0.7 | 
2 | Cc1cccc(C)c1-c1cc(Nc2nc(N3CCC[C@H](N)C3)ncc2C(N)=O)cc(C(=O)N2CCOCC2)c1 [Example 20, (S)-2-(3-aminopiperidin-1-yl)-4-((2′,6′-dimethyl-5-(morpholine-4-carbonyl)-[1,1′-biphenyl]-3-yl)amino)pyrimidine-5-carboxamide] | 0.3 | 
3 | CC(C)(C)c1cccc(Nc2nc(N3CCCC(N)C3)ncc2C(N)=O)c1 (stereo not drawn) [Example 1, 2-(3-aminopiperidin-1-yl)-4-((3-(tert-butyl)phenyl)amino)pyrimidine-5-carboxamide] |  | ΔTm at 10 µM [2]: 10.6 °C
4 | CC(C)(C#N)c1cc(Nc2nc(N3CCC[C@H](N)C3)ncc2C(N)=O)cc(C(=O)N2CCOCC2)c1 [Example 48, (S)-2-(3-aminopiperidin-1-yl)-4-((3-(2-cyanopropane-2-yl)-5-(morpholine-4-carbonyl)phenyl)amino)pyrimidine-5-carboxamide] | 0.5 | 
5 | NC(=O)c1cnc(N2CCC[C@H](N)C2)nc1Nc1cc(C2CC2)cc(C2CC2)c1 [Example 53, (S)-2-(3-aminopiperidin-1-yl)-4-((3,5-dicyclopropylphenyl)amino)pyrimidine-5-carboxamide] | 8.2 | 
6 | NC(=O)c1cnc(N2CCC[C@H](N)C2)nc1Nc1cccc(C(=O)N2CCCCC2)c1 [Example 26, (S)-2-(3-aminopiperidin-1-yl)-4-((3-(piperidine-1-carbonyl)phenyl)amino)pyrimidine-5-carboxamide] | 1.8 | 
7 | CC(C)(O)c1cc(Nc2nc(N3CCC[C@H](N)C3)ncc2C(N)=O)cc(C(F)(F)F)c1 [Example 89, (S)-2-(3-aminopiperidin-1-yl)-4-((3-(2-hydroxypropan-2-yl)-5-(trifluoromethyl)phenyl)amino)pyrimidine-5-carboxamide] | 3.4 | 
8 | CN(C)C(=O)c1cccc(Nc2nc(N3CCC[C@H](N)C3)ncc2C(N)=O)c1 [Example 23, (S)-2-(3-aminopiperidin-1-yl)-4-((3-(dimethylcarbamoyl)phenyl)amino)pyrimidine-5-carboxamide] | 1.6 | 
9 | CC(C)(C)c1cc(Nc2nc(N3CCC[C@H](N)C3)ncc2C(N)=O)cc(C(C)(C)C)c1 [Example 3, (S)-2-(3-aminopiperidin-1-yl)-4-((3,5-di-tert-butylphenyl)amino)pyrimidine-5-carboxamide] |  | ΔTm at 10 µM [2]: 13.4 °C
10 | CC(C)(O)c1cc(Nc2nc(N3CCC[C@H](N)C3)ncc2C(N)=O)cc(C(C)(C)O)c1 [Example 90, (S)-2-(3-aminopiperidin-1-yl)-4-((3,5-bis(2-hydroxypropan-2-yl)phenyl)amino) pyrimidi-ne-5-carboxamide] | 0.9 | 
11 | COC[C@H]1CCCN1C(=O)c1cccc(Nc2nc(N3CCC[C@H](N)C3)ncc2C(N)=O)c1.Cl [Example 36, 2-((S)-3-aminopiperidin-1-yl)-4-((3-((R)-2-(methoxymethyl)pyrrolidine-1-carbonyl)phenyl)amino)pyrimidine-5-carboxamide hydrochloride] |  | SYK Tm-Shift [1]: 1.4 °C
12 | CC1(C)C(=O)Nc2ccc(Nc3nc(N4CCC[C@H](N)C4)ncc3C(N)=O)cc21 [Example 65, (S)-2-(3-aminopiperidin-1-yl)-4-((3,3-dimethyl-2-oxoindolin-5-yl)amino)pyrimidine-5-carboxamide] | 0.3 | 
13 | NC(=O)c1cnc(N2CCC[C@H](N)C2)nc1Nc1cc(C(=O)N2CCOCC2)cc(C(F)(F)F)c1 [Example 43, (S)-2-(3-aminopiperidin-1-yl)-4-((3-(morpholine-4-carbonyl)-5-(trifluoromethyl)phenyl)amino)pyrimidine-5-carboxamide] | 1.2 | 
14 | CN1CCN(C(=O)c2cccc(Nc3nc(N4CCC[C@H](N)C4)ncc3C(N)=O)c2)CC1=O.Cl [Example 38, (S)-2-(3-aminopiperidin-1-yl)-4-((3-(4-methyl-3-oxopiperazine-1-carbonyl)phenyl)amino)pyrimidine-5-carboxamide hydrochloride] |  | SYK Tm-Shift [1]: 3.4 °C
15 | Cc1ccccc1-c1cccc(Nc2nc(N3CCC[C@H](N)C3)ncc2C(N)=O)c1 [Example 10, (S)-2-(3-aminopiperidin-1-yl)-4-((2′-methyl-[1,1′-biphenyl]-3-yl)amino)pyrimidine-5-carboxamide] | 6.5 | 
16 | C[C@@H]1COC[C@H](C)N1C(=O)c1cccc(Nc2nc(N3CCC[C@H](N)C3)ncc2C(N)=O)c1.Cl [Example 33, 2-((S)-3-aminopiperidin-1-yl)-4-((3-((3S,5R)-3,5-dimethylmorpholine-4-carbonyl)phenyl)amino)pyrimidine-5-carboxamide hydrochloride] |  | SYK Tm-Shift [1]: 0.5 °C
17 | COc1ccc2c(c1)CN(C(=O)c1cccc(Nc3nc(N4CCC[C@H](N)C4)ncc3C(N)=O)c1)C2 [Example 35, (S)-2-(3-aminopiperidin-1-yl)-4-((3-(5-methoxyisoindoline-2-carbonyl)phenyl)amino)pyrimidine-5-carboxamide] | 4.3 | 
18 | CC(C)(C)c1cc(Nc2nc(N3C[C@H](N)C[C@H](N)C3)ncc2C(N)=O)cc(C(C)(C)C)c1.Cl.Cl [Example 11, 4-((3,5-di-tert-butylphenyl)amino)-2-((3S,5R)-3,5-diaminopiperidin-1-yl)pyrimidine-5-carboxamide dihydrochloride] |  | SYK Tm-Shift [1]: −0.5 °C
19 | NC(=O)c1cnc(N2CCC[C@H](N)C2)nc1Nc1cc(C(=O)N2CCOCC2)cc(-c2ccccc2)c1 [Example 21, (S)-2-(3-aminopiperidin-1-yl)-4-((5-(morpholine-4-carbonyl)-[1,1′-biphenyl]-3-yl)amino)pyrimidine-5-carboxamide] | 0.3 | 
20 | NC(=O)c1cnc(N2CCC[C@H](N)C2)nc1Nc1cccc(C(=O)N2CCOCC2)c1 [Example 24, (S)-2-(3-aminopiperidin-1-yl)-4-((3-(morpholine-4-carbonyl)phenyl)amino)pyrimidine-5-carboxamide] | 1.4 | 
21 | CC(C)(O)C1CN(C(=O)c2cccc(Nc3nc(N4CCC[C@H](N)C4)ncc3C(N)=O)c2)C1.Cl [Example 37, (S)-2-(3-aminopiperidin-1-yl)-4-((3-(3-(2-hydroxypropan-2-yl)azetidine-1-carbonyl)phenyl)amino)pyrimidine-5-carboxamide hydrochloride] |  | SYK Tm-Shift [1]: 5.0 °C
22 | CN(C)C(=O)c1cc(Nc2nc(N3CCC[C@H](N)C3)ncc2C(N)=O)cc(C(C)(C)C#N)c1 [Example 46, (S)-2-(3-aminopiperidin-1-yl)-4-((3-(2-cyanopropan-2-yl)-5-(dimethylcarbamoyl)phenyl)amino)pyrimidine-5-carboxamide] | 0.5 | 
23 | CC(C)(C)c1cc(Nc2nc(N3CCC[C@H](N)C3)ncc2C(N)=O)ccn1 [Example 8, (S)-2-(3-aminopiperidin-1-yl)-4-((2-(tert-butyl)pyridin-4-yl)amino)pyrimidine-5-carboxamide] | 3.2 | 
24 | C[C@@H]1CN(C(=O)c2cccc(Nc3nc(N4CCC[C@H](N)C4)ncc3C(N)=O)c2)C[C@H](C)O1 [Example 39, 2-((S)-3-aminopiperidin-1-yl)-4-((3-((2R,6S)-2,6-dimethylmorpholine-4-carbonyl)phenyl)amino)pyrimidine-5-carboxamide] | 3.1 | 
